{
  "source": "patent US7884093B2",
  "about": "“Progesterone for the treatment or prevention of spontaneous preterm birth” (priority 2007, dated 2011)",
  "key": {"[1]": {"system": "cervix length of pregnant women", "experiment": "Cervical length by transvaginal ultrasound at baseline and at 28 weeks of gestation", "assay_type": "in vivo, human", "conditions": "baseline to 28 weeks gestation, all participants, 6-10 weeks of dosing", "method": "(§1) Following randomization, daily treatment was initiated by the patient and continued until 37 0/7 weeks' gestational age, occurrence of preterm rupture of membranes, or delivery. Each patient was evaluated at 2-week intervals. All subjects had another transvaginal ultrasound to determine cervical length at 28 weeks of gestation.\nPrior to beginning the study, baseline measurements of each of the participant's cervical length were taken and are summarized in FIG. 1. During the study, cervical length measurements were made by ultrasound at both baseline and later at 28 weeks after a period of 6-10 weeks of dosing. The mean cervix length of 3.7 cm was the same for both the treatment and placebo groups, and the range of cervical length for all participants was between 1.1 cm and 7.9 cm. At 28 weeks gestation, each participant's cervix was re-measured and the data was compared to the baseline data, and an unexpected and surprising finding was discovered."}, "[2]": {"system": "pregnant women with a history of spontaneous preterm birth", "experiment": "Randomized, double-blind, placebo-controlled trial of vaginal progesterone gel on preterm birth", "assay_type": "in vivo, human", "method": "In light of the state of the art, a study was conducted to examine the effects of progesterone on preterm labor and premature birth in women with a history of a previous preterm birth. […] The selection, categorization, and breakdown of the two groups is outlined in the flow chart of FIG. 2. The study was a prospective, randomized, placebo-controlled, double-blind, multicenter trial in pregnant subjects at high risk of spontaneous preterm delivery. The study participants were screened from 16 0/7 and 22 6/7 weeks gestational age. Subjects were randomized to drug or placebo from 18 0/7 to 22 6/7 weeks.\n(§2) Subjects meeting the study criteria were enrolled by the investigator between 18 0/7 and 22 6/7 weeks and received identically packaged, sequentially numbered progesterone or placebo vaginal gel in a 1:1 ratio. A SAS (SAS Institute Inc., Cary, N.C., USA) procedure for variable block size was used to generate a randomization schedule stratified by study site and by inclusion criteria (prior preterm birth or short cervix). Quintiles, Inc. (Kansas City, Mo., USA) generated the randomization sequences, which were confidentially provided to the packaging company. Treatment allocation was concealed by an identical packaging and labelling process performed by Aptuit, Inc. (Mount Laurel, N.J., USA). The study patients, obstetric care providers, study investigators, study coordinators, and study monitors were blind to the exposure status (progesterone or placebo) of all study patients.\nSubjects were randomized in a 1:1 ratio to receive PROCHIEVE® 8% (vaginally administered 90 mg natural progesterone gel) or placebo vaginal gel. All women performed self-dosing on a daily basis of their assigned study medication, either PROCHEIVE® (progesterone) or placebo.\nStatistical analysis was based on the intent-to-treat principle.\nPatients who were currently or previously enrolled in another investigational study within 1 month prior to screening for the present study were not included in the trial. Patients were also restricted from participation in the trial if the present pregnancy was complicated by a major fetal anomaly or a known chromosome disorder, or was a multifetal gestation. Patients with a cervical cerclage in place, or those intending to have one placed during the current pregnancy, were excluded from study participation, as were those with signs of preterm rupture of membranes, vaginal bleeding, amnionitis, or preterm labor at enrollment.\nThe study drug was packaged and labelled according to the 1:1 randomization scheme provided by Quintiles, Inc (Kansas City, Mo., USA). A SAS (SAS Institute Inc., Cary, N.C., USA) procedure for variable block size was used to generate the randomization schedule stratified by study site. […] The study drug (Prochieve® 8% progesterone gel) and placebo (Replens®) were provided by Columbia Laboratories, Inc. (Livingston, N.J., USA). Patients were instructed to self-administer the full applicator of vaginal gel at approximately the same time daily, preferably in the morning. Patients received a 2-week supply of the allocated treatment at the time of randomization, and at every 2-week study visit thereafter. All drug supplies were to be brought in at each visit at all study centers, and compliance with the study medication was determined from returned empty wrappers and unused wrappers. Percent compliance was assessed as total treatment duration compliance: (total applicators used/total dosing days)×100. Total dosing days was defined as the interval from enrollment to either the date of preterm premature rupture of membranes, the date of preterm birth without accompanying ruptured membranes, or 37 0/7 weeks' gestation.\nThe occurrence of adverse events was queried at each 2-week study visit at all centers by asking if the patient had any complaints or problems. Subjects received an extra 1-week drug supply when treatment was initiated in case they could not make the next regularly scheduled appointment."}, "[3]": {"system": "pregnant women at risk of preterm birth", "conditions": "cited from earlier work"}, "[4]": {"system": "pregnant women with a short cervix", "experiment": "Randomized trial, analysis of women with a shortened cervix in the midtrimester", "assay_type": "in vivo, human", "method": "The study further included women without a history of preterm birth and having a short cervix at the time of enrollment. […] The lowest quartile (≦3.2 cm) was combined with the short cervix only patients and subdivided sequentially and the primary and secondary outcomes for women with cervical lengths of ≦3.0 cm and <2.8 cm at the time of enrollment were analyzed. There were an insufficient number of patients with even shorter cervical lengths available for further analysis. For the purposes of the study, the criteria for short cervix was set at less than 2.8 cm.\nThe study included women with a documented history of spontaneous preterm birth (<35 weeks) in a singleton pregnancy in the immediate preceding parity regardless of cervical length, and women without a history of preterm birth but with midtrimester cervical shortening (≦2.5 cm) in the current pregnancy were offered enrollment in the study at 18 0/7-22 6/7 weeks of gestation. Recruitment began in April 2004 and the last patient delivered Jan. 8, 2007.\nTherefore, women were excluded if any of the following conditions were present: age <18 or >45 years; multifetal gestation; history of an adverse reaction to progesterone or any component present in the treatment medication; treatment with progesterone within 4 weeks preceding enrollment; or current treatment for a seizure disorder, psychiatric disorder, or chronic hypertension. […] Patients who were currently or previously enrolled in another investigational study within one month prior to randomization were not included.\nPatients were also restricted from participation in the trial if the present pregnancy was complicated by a major fetal anomaly or a known chromosome disorder. Patients with a cervical cerclage in place, or those intending to have one placed during the current pregnancy, were excluded from the study, as were those with signs of preterm rupture of membranes, vaginal bleeding, amnionitis, or preterm labor at enrollment.\nas §2, with “Women with a history of spontaneous preterm birth in the preceding pregnancy regardless of cervical length or women without a history of preterm birth but with midtrimester cervical shortening in the current pregnancy were screened by the investigator or study coordinator between 16 0/7 and 22 6/7 weeks of gestation. Prior history of spontaneous preterm birth was confirmed by evaluation of the patient's medical records before enrollment. Gestational age was based on the patient's last menstrual period and correlated with an ultrasound biometry algorithm. Each patient had at least one ultrasound examination before randomization to confirm gestational age and rule out major fetal anomalies, and a transvaginal scan to determine the length of the cervix. Subjects” for “Subjects”\nas §1"}, "[5]": {"conditions": "ITT, history of spontaneous preterm birth"}, "[6]": {"conditions": "neonates, history of spontaneous preterm birth"}, "[7]": {"conditions": "baseline cervical length ≦3.0 cm, total 58"}, "[8]": {"conditions": "cervical length <2.8 cm, versus placebo"}},
  "data": [
    {"smiles": "CC(=O)[C@H]1CC[C@H]2[C@@H]3CCC4=CC(=O)CC[C@]4(C)[C@H]3CC[C@]12C", "note": "[progesterone]", "values": [
      {"measurement": "mean decrease in cervix length", "setting": "[1]", "result": 0.44, "unit": "cm"},
      {"measurement": "admissions for preterm labor", "setting": "[2]; [5]", "result": 25.6, "unit": "%"},
      {"measurement": "head circumference of the neonates", "setting": "[2]; [5]", "result": "32.3±3.34", "unit": "cm"},
      {"measurement": "mean birth weight of the neonates", "setting": "[2]; [5]", "result": "2680±710", "unit": "gm"},
      {"measurement": "mean gestational age at delivery", "setting": "[2]; [5]", "result": 36.6, "unit": "weeks"},
      {"measurement": "rate of preterm birth at <37 0/7 weeks", "setting": "[2]; [5]", "result": 41.7, "unit": "%"},
      {"measurement": "rate of preterm birth at ≦28 0/7 weeks", "setting": "[2]; [5]", "result": 3.2, "unit": "%"},
      {"measurement": "rate of preterm birth at ≦35 0/7 weeks", "setting": "[2]; [5]", "result": 22.7, "unit": "%"},
      {"measurement": "rate of preterm rupture of membranes", "setting": "[2]; [5]", "result": 12.0, "unit": "%"},
      {"measurement": "rate of stillbirth/intrauterine fetal demise", "setting": "[2]; [5]", "result": 1.6, "unit": "%"},
      {"measurement": "rate of preterm birth at ≦32 0/7 weeks of gestation (primary outcome)", "setting": "[2]; ITT, history of spontaneous preterm birth, 8% progesterone vaginal gel 90 mg once daily", "result": 10.0, "unit": "%"},
      {"measurement": "1-minute APGAR score, median", "setting": "[2]; neonates", "result": 8},
      {"measurement": "5-minute APGAR score, median", "setting": "[2]; neonates", "result": 9},
      {"measurement": "occurrence of grade 3 or 4 intraventricular haemorrhage", "setting": "[2]; [6]", "result": 0.3, "unit": "%"},
      {"measurement": "occurrence of necrotizing enterocolitis", "setting": "[2]; [6]", "result": 1.0, "unit": "%"},
      {"measurement": "occurrence of newborn respiratory distress syndrome", "setting": "[2]; [6]", "result": 11.0, "unit": "%"},
      {"measurement": "rate of admission to a neonatal intensive care unit", "setting": "[2]; [6]", "result": 17.5, "unit": "%"},
      {"measurement": "number of days from admission to delivery", "setting": "[2]; patients admitted for treatment of preterm labor", "result": 30, "unit": "days"},
      {"measurement": "mean gestational age at delivery, infant morbidity or mortality, or other maternal or neonatal outcome measure", "setting": "[2]; versus placebo, in words", "result": "no difference"},
      {"measurement": "treatment emergent adverse events", "setting": "[2]; versus placebo, in words", "result": "similar"},
      {"measurement": "frequency of preterm birth at ≦32 weeks", "setting": "[2]; versus placebo, in words, history of spontaneous preterm birth", "result": "did not decrease"},
      {"measurement": "frequency of preterm birth at ≦32 weeks", "setting": "[2]; versus placebo, in words, history of spontaneous preterm birth, listed as vaginal progesterone gel", "result": "does not effectively reduce"},
      {"measurement": "occurrence of perinatal death", "setting": "[3]; Dodd et al. meta-analysis of randomized trials, versus placebo", "result": "no statistically significant difference"},
      {"measurement": "frequency of recurrent preterm birth", "setting": "[3]; O'Brien et al., high risk women selected by a history of spontaneous preterm birth, prophylactic vaginal gel", "result": "does not effectively reduce"},
      {"measurement": "time to delivery (Kaplan-Meier curve)", "setting": "[4]; baseline cervical length greater than 3.2 cm, versus placebo", "result": "no statistically significant difference"},
      {"measurement": "time to delivery (Kaplan-Meier curve)", "setting": "[4]; baseline cervical length less than 2.8 cm, versus placebo", "result": "probability of not delivering over a longer gestation period"},
      {"measurement": "time to delivery (Kaplan-Meier curve)", "setting": "[4]; baseline cervical length less than or equal to 3.0 cm, versus placebo", "result": "probability of not delivering over a longer gestation period"},
      {"measurement": "time to delivery (Kaplan-Meier curve)", "setting": "[4]; baseline cervical length less than or equal to 3.2 cm, versus placebo", "result": "probability of not delivering over a longer gestation period"},
      {"measurement": "Births >32 Weeks, Number", "setting": "[4]; baseline cervical length ≦2.8 cm, total 19", "result": 19},
      {"measurement": "Births >32 Weeks, Number", "setting": "[4]; [7]", "result": 54},
      {"measurement": "Births ≦32 Weeks, Number", "setting": "[4]; [7]", "result": 4},
      {"measurement": "NICU admissions", "setting": "[4]; cervical length <2.8 cm", "result": 15.8, "unit": "%"},
      {"measurement": "fetal/infant deaths", "setting": "[4]; cervical length <2.8 cm", "result": "none"},
      {"measurement": "length of NICU stay", "setting": "[4]; cervical length <2.8 cm", "result": 1.1, "unit": "days"},
      {"measurement": "preterm deliveries at less than or equal to 28 weeks, number", "setting": "[4]; cervical length <2.8 cm", "result": "no preterm deliveries"},
      {"measurement": "rate of neonatal respiratory distress syndrome", "setting": "[4]; cervical length <2.8 cm", "result": 5.3, "unit": "%"},
      {"measurement": "total neonatal hospital days", "setting": "[4]; cervical length <2.8 cm", "result": 5.8, "unit": "days"},
      {"measurement": "rate of preterm birth at ≦32 weeks", "setting": "[4]; cervical length <2.8 cm at enrollment, 19 on progesterone", "result": 0, "unit": "%"},
      {"measurement": "reduction of the number of preterm delivery at less than 35 weeks", "setting": "[4]; [8]", "result": "about half"},
      {"measurement": "reduction of the number of preterm delivery at less than or equal to 37 weeks", "setting": "[4]; [8]", "result": "about half"},
      {"measurement": "delivering ≦32 weeks gestation", "setting": "[4]; short cervix only population, no history of preterm birth, 4 patients on progesterone", "result": 0}
    ]}
  ]
}
